Assay results as given in BigSolDB 2.1.

Nc1nc2ccc(OC(F)(F)F)cc2s1
solubility (mole fraction)
Settings | 278.15 K | 283.15 K | 288.15 K | 293.15 K | 298.15 K | 303.15 K | 308.15 K | 313.15 K | 318.15 K | 323.15 K
in acetone | 0.371 | 0.379 | 0.387 | 0.4 | 0.414 | 0.425 | 0.437 | 0.449 | 0.464 | 0.477
in ethanol | 0.179 | 0.188 | 0.198 | 0.212 | 0.223 | 0.236 | 0.255 | 0.273 | 0.294 | 0.308
in n-propanol | 0.179 | 0.189 | 0.202 | 0.215 | 0.23 | 0.249 | 0.267 | 0.287 | 0.312 | 0.333
